Active and inactive are the calls of the source. The rule behind the calls is not given here.
Molecular target: Dual specificity protein phosphatase 6 (Rattus norvegicus) (UniProt Q64346)
Test: rat DUSP6 enzyme activity inhibition – biochemical, in vitro, hit/probe assessment, dose response (AID 553)
Conditions: recombinant MKP-3 phosphatase, fluorescence intensity

Dual specificity protein phosphatase 6 (Rattus norvegicus), sequence (Q64346 whole entry, looked up): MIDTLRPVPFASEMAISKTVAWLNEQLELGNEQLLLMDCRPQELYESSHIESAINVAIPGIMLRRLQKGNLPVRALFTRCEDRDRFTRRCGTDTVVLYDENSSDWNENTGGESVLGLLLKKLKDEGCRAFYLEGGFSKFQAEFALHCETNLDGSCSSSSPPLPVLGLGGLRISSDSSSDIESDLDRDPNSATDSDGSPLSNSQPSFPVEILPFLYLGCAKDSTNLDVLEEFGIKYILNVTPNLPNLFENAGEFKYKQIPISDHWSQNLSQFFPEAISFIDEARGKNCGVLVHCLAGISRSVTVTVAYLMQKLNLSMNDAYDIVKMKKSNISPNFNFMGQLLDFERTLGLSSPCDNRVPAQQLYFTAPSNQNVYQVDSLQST

## O=C1c2cccnc2C(Nc2ccc(S(=O)(=O)N3CCCCCC3)cc2)N1Cc1ccccc1 (configuration not stated)
  IC50: > 50 µM (inactive)

## Oc1ccc2ccccc2c1C=NC12CN3CCN(CN(C3)C1)C2
  IC50: > 50 µM (inactive)

## O=C1C(C2=C(O)c3ccccc3C2=O)=Nc2ccccc21
  IC50: 18.3 µM

## CCOC(=O)c1ccc(NC2c3ncccc3C(=O)N2Cc2ccc(F)cc2)cc1 (configuration not stated)
  IC50: > 50 µM (inactive)

## COC(=O)C1=C(C)NC2=C(C(=O)c3ccccc32)C1c1ccc(-c2ccc(C(=O)O)cc2)o1 (configuration not stated)
  IC50: > 50 µM (inactive)

## CCSCCOC(=O)C1=C(C)NC2=C(C(=O)CCC2)C1c1coc2ccccc2c1=O (configuration not stated)
  IC50: > 50 µM (inactive)

## N#C/C(=C(/O)CSc1nnc(Cc2cccs2)n1C1CCCCC1)c1nc2ccccc2[nH]1
  IC50: > 50 µM (inactive)

Source: PubChem BioAssay AID553 (University of Pittsburgh Molecular Library Screening Center, 2006)
